In patent US20250195521A1 (Revolution Medicines, Inc., priority 2020, published 2025) one finds EC50 and IC50 data, which are given here for 28 compounds.

The test system of test [1] is K-Ras G12C (NCI-H358 cells). Briefly: Potency assay: pERK in NCI-H358 cells. In kind it is cell-based, human. As to conditions: read-out: pERK EC50 (H358 KRAS G12C). The essentials:
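Cells plated the day before were exposed for 4 h at 37° C, 5% CO2 to a 10-point, 3-fold DMSO dilution series (10 mM top stock), in duplicate. Phospho-ERK was read by AlphaLISA SureFire Ultra or by In-Cell Western with DRAQ5 DNA stain, and IC50 came from a 4-parameter sigmoidal fit.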

The test system of the next test is NCI-H358 (K-Ras G12C). The experiment in a line: CellTiter-Glo cell viability assay, NCI-H358. In kind it is cell-based, human. The essentials: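 Viability is measured as ATP-dependent luminescence (CellTiter-Glo) five days into compound treatment. Responses are normalized to vehicle (DMSO) wells and fitted by four-parameter logistic regression.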
On the technique in general: In ATP-based viability assays light output follows the ATP content of the culture.

[2] abbreviates: Homo sapiens, NCI-H358 cells, 4 hours.
[3] abbreviates: Homo sapiens, NCI-H358, 120 h, 5-day treatment, read-out: H358 Cell Viability assay data (K-Ras G12C, IC50).
Where [4] appears, read: 5-day treatment, read-out: H358 Cell Viability assay data (K-Ras G12C, IC50).
[5] abbreviates: Homo sapiens, NCI-H358, 120 h, read-out: H358 Cell Viability assay data (K-Ras G12C, IC50, uM), 5-day treatment.

Like-named read-outs stand apart in the source and are kept apart here.

`C=CC(=O)N1CC[C@H](C(=O)N(C)[C@H](C(=O)N[C@H]2Cc3cccc(c3)-c3ccc4c(c3)c(c(-c3cccnc3[C@H](C)OC)n4CC)CC(C)(C)COC(=O)[C@@H]3CCCN(N3)C2=O)[C@@H](C)C(F)(F)F)C1` (atropisomer, axis not shown) [Compound A640]: the EC50 (as a rule, the midpoint of the concentration-response curve) in test [1] (setting [2]) was below 5 µM. Also, in the test on NCI-H358 (K-Ras G12C) (setting [3]), the IC50 (commonly the concentration at which inhibition is half-maximal) lay within 0.01 to 0.1 µM. For `CCn1c(-c2cccnc2[C@H](C)OC)c2c3cc(ccc31)-c1cccc(c1)C[C@H](NC(=O)[C@H](C(C)C)N(C)C(=O)[C@H]1CCN(C(=O)/C=C/CN3CC(OC)C3)C1)C(=O)N1CCC[C@H](N1)C(=O)OCC(C)(C)C2` [Compound A203], the EC50 in test [1] (NCI-H358 cells, 4 hours) is below 5 µM. Also, in the test on NCI-H358 (K-Ras G12C) (setting [4]), the IC50 is above 10 µM.

Consider `CCn1c(-c2cnccc2COC)c2c3cc(ccc31)-c1cc(O)cc(c1)C[C@H](NC(=O)[C@H](C(C)C)N(C)C(=O)[C@@H]1CN(C(C)=O)C[C@@H]1C(F)(F)F)C(=O)N1CCC[C@H](N1)C(=O)OCC(C)(C)C2` [Compound A80], for which the EC50 in test [1] (setting [2]) is below 5 µM. Besides, the IC50 in the test with NCI-H358 (K-Ras G12C) (setting [3]) was in the range of 0.1 to 1 µM. For `CCn1c(-c2ccccc2CCOC)c2c3cc(ccc31)-c1cc(O)cc(c1)C[C@H](NC(=O)[C@H](C(C)C)N(C)C(=O)CCN)C(=O)N1CCC[C@H](N1)C(=O)OCC(C)(C)C2` [Compound A70] the same measures were below 5 µM and 0.01 to 0.1 µM. For `CCn1c(-c2cccnc2[C@H](C)OC)c2c3cc(ccc31)-c1csc(n1)C[C@H](NC(=O)[C@H](C(C)C)N(C)C(=O)N1CC3(CC(O)C3)C1)C(=O)N1CCC[C@H](N1)C(=O)OCC(C)(C)C2` [Compound A510] the same measures were below 5 µM and 0.01 to 0.1 µM. For `CCn1c(-c2cccnc2[C@H](C)OC)c2c3cc(ccc31)-c1csc(n1)C[C@H](NC(=O)[C@H](C(C)C)N(C)C(=O)N1CC[C@]3(CCN(C)C3=O)C1)C(=O)N1CCC[C@H](N1)C(=O)OCC(C)(C)C2` (single isomer, unassigned) [Compound A461] the same measures were below 5 µM and below 0.01 µM. `CCn1c(-c2cccnc2[C@H](C)OC)c2c3cc(ccc31)-c1cc(O)cc(c1)C[C@H](NC(=O)[C@H](C(C)C)N(C)C(=O)C1(CO)CC1)C(=O)N1CCC[C@H](N1)C(=O)OCC(C)(C)C2` [Compound A232]: in test [1] (setting [2]), the EC50 was below 5 µM. Further, in the test on NCI-H358 (K-Ras G12C) (setting [3]), the IC50 is 0.01 to 0.1 µM. For `CCn1c(-c2cccnc2[C@H](C)OC)c2c3cc(ccc31)-c1cc(O)cc(c1)C[C@H](NC(=O)[C@H](C(C)C)N(C)C(=O)C1CC13CC3)C(=O)N1CCC[C@H](N1)C(=O)OCC(C)(C)C2` (some centres unmarked) [Compound A156] the same measures were below 5 µM and 0.01 to 0.1 µM.

For `CCn1c(-c2cnccc2COC)c2c3cc(ccc31)-c1cc(O)cc(c1)C[C@H](NC(=O)[C@H](C(C)C)N(C)C(=O)[C@@H]1CCCO1)C(=O)N1CCC[C@H](N1)C(=O)OCC(C)(C)C2` [Compound A91], in test [1] (setting [2]), the EC50 was below 5 µM. In addition, in the test with NCI-H358 (K-Ras G12C) (setting [3]), the IC50 was below 0.01 µM. As to `C=CC(=O)N1CC[C@H](C(=O)N(C)[C@H](C(=O)N[C@H]2Cc3cc(O)cc(c3)-c3ccc4c(c3)c(c(-c3ncccc3[C@H](C)OC)n4CC)CC(C)(C)COC(=O)[C@@H]3CCCN(N3)C2=O)C(C)C)C1` [Compound A22], in test [1] (Homo sapiens, NCI-H358, 4 h), the EC50 is below 5 µM. In the test on NCI-H358 (K-Ras G12C) (setting [5]), the IC50 fell in the range of 0.01 to 0.1 µM. For the compound `CCn1c(-c2cccnc2[C@H](C)OC)c2c3cc(ccc31)-c1cccc(c1)C[C@H](NC(=O)[C@H](C(C)C)N(C)C(=O)[C@H]1CCN(C(=O)/C=C/CN3CC(OC)C3)C1)C(=O)N1CCC[C@H](N1)C(=O)OCC(C)(C)C2` [Compound A204], the EC50 in test [1] (setting [2]) is below 5 µM. Besides, the IC50 with NCI-H358 (K-Ras G12C) (setting [4]) was 0.01 to 0.1 µM. As for `C=CC(=O)N1CC[C@H](C(=O)N(C)[C@H](C(=O)N[C@H]2Cc3cc(N)cc(c3)-c3ccc4c(c3)c(c(-c3ccccc3COC)n4CC)CC(C)(C)COC(=O)[C@@H]3CCCN(N3)C2=O)C(C)C)C1` [Compound A2], the EC50 in test [1] (setting [2]) is below 5 µM. Besides, the IC50 in the test on NCI-H358 (K-Ras G12C) (setting [3]) is above 10 µM. For `CCn1c(-c2cccnc2[C@H](C)OC)c2c3cc(ccc31)-c1cc(O)cc(c1)C[C@H](NC(=O)[C@H](C(C)C)N(C)C(=O)[C@H]1CCN(C(=O)CN(C)C)C1)C(=O)N1CCC[C@H](N1)C(=O)OCC(C)(C)C2` [Compound A95], the EC50 in test [1] (setting [2]) was below 5 µM. In the test on NCI-H358 (K-Ras G12C) (setting [3]), the IC50 lay within 0.01 to 0.1 µM.

`CCn1c(-c2cccnc2[C@H](C)OC)c2c3cc(ccc31)-c1cc(O)cc(c1)C[C@H](NC(=O)[C@H](C(C)C)N(C)C(=O)C1COC1)C(=O)N1CCC[C@H](N1)C(=O)OCC(C)(C)C2` [Compound A18]: in test [1] (setting [2]), the EC50 was below 5 µM. The IC50 with NCI-H358 (K-Ras G12C) (setting [3]) fell in the range of 0.1 to 1 µM. Take `CCn1c(-c2cnccc2COC)c2c3cc(ccc31)-c1cc(O)cc(c1)C[C@H](NC(=O)[C@H](C(C)C)N(C)C(=O)N1CC(OC)C1)C(=O)N1CCC[C@H](N1)C(=O)OCC(C)(C)C2` [Compound A30]: the EC50 in test [1] (setting [2]) was below 5 µM. For the same compound, in the test with NCI-H358 (K-Ras G12C) (setting [3]), the IC50 lay within 0.01 to 0.1 µM. For `CCn1c(-c2cccnc2[C@H](C)OC)c2c3cc(ccc31)-c1csc(n1)C[C@H](NC(=O)[C@H](C(C)C)N(C)C(=O)N1CC(N(C)S(C)(=O)=O)C1)C(=O)N1CCC[C@H](N1)C(=O)OCC(C)(C)C2` [Compound A550] the same measures were below 5 µM and below 0.01 µM. Take `CCn1c(-c2cccnc2[C@H](C)OC)c2c3cc(ccc31)-c1cc(O)cc(c1)C[C@H](NC(=O)[C@H](C(C)C)N(C)C(=O)C13CNCC1C3)C(=O)N1CCC[C@H](N1)C(=O)OCC(C)(C)C2` (some centres unmarked) [Compound A155]: the EC50 in test [1] (setting [2]) was below 5 µM. The IC50 in the test on NCI-H358 (K-Ras G12C) (setting [4]) was 0.01 to 0.1 µM; in the test on NCI-H358 (K-Ras G12C) (setting [3]) it was below 0.01 µM. Regarding `CCn1c(-c2cccnc2[C@H](C)OC)c2c3cc(ccc31)-c1cc(O)cc(c1)C[C@H](NC(=O)[C@H](C(C)C)N(C)C(=O)[C@H]1CCN(C(=O)[C@@H]3CCCN3C)C1)C(=O)N1CCC[C@H](N1)C(=O)OCC(C)(C)C2` [Compound A385], the EC50 in test [1] (setting [2]) is below 5 µM. Further, the IC50 with NCI-H358 (K-Ras G12C) (setting [3]) was below 0.01 µM. In the case of `C=CC(=O)N1CC[C@H](C(=O)N(C)[C@H](C(=O)N[C@H]2Cc3cc(sn3)-c3ccc4c(c3)c(c(-c3cccnc3[C@H](C)OC)n4CC)CC(C)(C)COC(=O)[C@@H]3CCCN(N3)C2=O)C(C)C)C1` [Compound A340], the EC50 in test [1] (setting [2]) was below 5 µM. Moreover, the IC50 in the test on NCI-H358 (K-Ras G12C) (setting [3]) lay within 0.1 to 1 µM. For `C=CC(=O)N1CC[C@H](C(=O)N(C)[C@H](C(=O)N[C@H]2Cc3cc(O)cc(c3)-c3ccc4c(c3)c(c(-c3ccccc3CCOC)n4CC)CC(C)(C)COC(=O)[C@@H]3CCCN(N3)C2=O)C(C)C)C1` [Compound A24] the same measures were below 5 µM and above 10 µM. As for `C=CC(=O)N1CC[C@H](C(=O)N(C)[C@H](C(=O)N[C@H]2Cc3cc(O)cc(c3)-c3ccc4c(c3)c(c(-c3ccc(CC(=O)O)nc3)n4CC)CC(C)(C)COC(=O)[C@@H]3CCCN(N3)C2=O)C(C)C)C1` [Compound A21], in test [1] (Homo sapiens, NCI-H358, 4 h), the EC50 is below 5 µM. The IC50 with NCI-H358 (K-Ras G12C) (setting [5]) is above 10 µM. Turning to `CCn1c(-c2cccnc2[C@H](C)OC)c2c3cc(ccc31)-c1csc(n1)C[C@H](NC(=O)[C@H](C(C)C)N(C)C(=O)N1CC(N(C)C(=O)C#CC(C)(C)N3CCC3)C1)C(=O)N1CCC[C@H](N1)C(=O)OCC(C)(C)C2` [Compound A379], the IC50 with NCI-H358 (K-Ras G12C) (setting [3]) is below 0.01 µM. Same read-out and setting: as for `C=CC(=O)N1CC[C@H](C(=O)N(C)[C@H](C(=O)N[C@H]2C[C@H]3CN(CCO3)c3ccc4c(c3)c(c(-c3cccnc3COC)n4CC)CC(C)(C)COC(=O)[C@@H]3CCCN(N3)C2=O)C(C)C)C1` [Compound A240], the figure is above 10 µM; as for `CCn1c(-c2ccccc2CN(C)C)c2c3cc(ccc31)-c1cc(O)cc(c1)C[C@H](NC(=O)[C@H](C(C)C)N(C)C(=O)c1nc(NC(=O)/C=C/CN(C)C)cs1)C(=O)N1CCC[C@H](N1)C(=O)OCC(C)(C)C2` [Compound A90], above 10 µM. For `C=CC(=O)N1CC[C@H](C(=O)N(C)[C@H](C(=O)N[C@H]2Cc3nc(cs3)-c3ccc4c(c3)c(c(-c3cc(C5=CCN(C)CC5)cnc3[C@H](C)OC)n4CC)CC(C)(C)COC(=O)[C@@H]3CCCN(N3)C2=O)C(C)C)C1` [Compound A520], in the test on NCI-H358 (K-Ras G12C) (setting [4]), the IC50 was below 0.01 µM.

As for `C=CC(=O)N1CC[C@H](C(=O)N(C)[C@H](C(=O)N[C@H]2Cc3cc(O)cc(c3)-c3ccc4nc(-c5cccnc5COC)c(n4c3)CC(C)(C)COC(=O)[C@@H]3CCCN(N3)C2=O)C(C)C)C1` [Compound A243], in the test with NCI-H358 (K-Ras G12C) (setting [3]), the IC50 is above 10 µM. For `C=CC(=O)N1CC[C@@]2(CCCN([C@H](C(=O)N[C@H]3Cc4cc(O)cc(c4)-c4ccc5c(c4)c(c(-c4ccccc4CCOC)n5CC)CC(C)(C)COC(=O)[C@@H]4CCCN(N4)C3=O)C(C)C)C2=O)C1` [Compound A63], in the test with NCI-H358 (K-Ras G12C) (setting [3]), the IC50 lay in the range of 0.1 to 1 µM.

For `C=CC(=O)N1CC[C@H](C(=O)N(C)[C@H](C(=O)N[C@H]2Cc3nc(cs3)-c3ccc4c(n3)c(c(-c3cccnc3[C@H](C)OC)n4CC)CC(C)(C)COC(=O)[C@@H]3CCCN(N3)C2=O)C(C)C)C1` [Compound A347, (2S)—N-[(7S,13S)-21-ethyl-20-{2-[(1S)-1-methoxyethyl]pyridin-3-yl}-17,17-dimethyl-8,14-dioxo-15-oxa-4-thia-9,21,25,27,28-pentaazapentacyclo[17.5.2.1^{2,5}0.1^{9,13}0.0^{22,26}]octacosa-1 (25),2,5 (28), 19,22 (26),23-hexaen-7-yl]-3-methyl-2-{N-methyl-1-[(3S)-1-(prop-2-enoyl)pyrrolidin-3-yl]formamido}butanamide], the IC50 in the test with NCI-H358 (K-Ras G12C) (setting [3]) was 0.1 to 1 µM.
